In patent publication US20240228488A1 (TAKEDA PHARMACEUTICAL COMPANY LIMITED, priority 2021, published 2024):

target: human activated kallikrein enzyme (Homo sapiens, UniProt P03952); experiment: Plasma kallikrein inhibition, fluorogenic PFR-AMC substrate, 500 pM activated kallikrein format; format: biochemical; conditions: 500 pM activated kallikrein, 300 uM PFR-AMC, 30 min preincubation, 10 min reaction; read-out: Primary Dose Response Assay: Average EC50
How it was run: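 High-enzyme format of the fluorogenic peptide assay, with EC50 taken from AMC signal: 500 pM activated kallikrein, 300 uM Pro-Phe-Arg-AMC, 30 min compound preincubation and 10 min reaction, all at room temperature, pH 7.5.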

Sequence of human activated kallikrein enzyme (P03952 391-638 limits assumed): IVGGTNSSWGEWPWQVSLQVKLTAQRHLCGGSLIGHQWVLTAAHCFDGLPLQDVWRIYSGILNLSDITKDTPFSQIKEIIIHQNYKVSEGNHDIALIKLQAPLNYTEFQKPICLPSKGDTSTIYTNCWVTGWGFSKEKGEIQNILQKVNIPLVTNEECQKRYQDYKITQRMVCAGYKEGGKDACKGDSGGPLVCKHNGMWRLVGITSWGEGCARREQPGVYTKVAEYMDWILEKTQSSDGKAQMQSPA
Sequence of human activated kallikrein enzyme (P03952 20-390 partner limits assumed): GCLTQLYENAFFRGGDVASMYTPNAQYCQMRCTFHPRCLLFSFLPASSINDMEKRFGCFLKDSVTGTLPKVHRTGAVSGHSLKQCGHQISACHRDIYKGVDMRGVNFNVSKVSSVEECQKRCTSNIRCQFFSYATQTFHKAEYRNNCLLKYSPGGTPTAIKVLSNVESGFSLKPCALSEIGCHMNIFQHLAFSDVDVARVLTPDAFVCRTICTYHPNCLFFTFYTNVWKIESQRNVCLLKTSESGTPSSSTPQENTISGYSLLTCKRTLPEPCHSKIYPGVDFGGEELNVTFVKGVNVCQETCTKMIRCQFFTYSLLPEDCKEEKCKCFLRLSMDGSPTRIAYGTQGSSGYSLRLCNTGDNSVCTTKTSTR

EC50	SMILES
10 to 100 nM	O=C(Nc1cc(NCc2cn3cc(C4CC4)ccc3n2)ccn1)[C@H]1C[C@@H]1c1cncc(Cl)c1 (racemic) [Example I-221, rac-(1S*,2S*)-2-(5-chloropyridin-3-yl)-N-(4-(((6-cyclopropylimidazo[1,2-a]pyridin-2-yl)methyl)amino)pyridin-2-yl)cyclopropane-1-carboxamide]
> 6000 nM	COc1cc([C@H]2C[C@@H]2C(=O)Nc2cc(NCc3cn4cc(C5CC5)ccc4n3)ncn2)cc(NC(=O)OC(C)(C)C)n1 (racemic) [Example I-182, rac-tert-butyl (4-((1S*,2S*)-2-((6-(((6-cyclopropylimidazo[1,2-a]pyridin-2-yl)methyl)amino)pyrimidin-4-yl)carbamoyl)cyclopropyl)-6-methoxypyridin-2-yl)carbamate]
< 1 nM	CN1CCN(c2cc(Cl)cn3cc(CNc4ccnc(NC(=O)[C@H]5C[C@@H]5c5cccc(Cl)c5)c4)nc23)CC1 [Example I-252, (1S,2S)-N-(4-(((6-chloro-8-(4-methylpiperazin-1-yl)imidazo[1,2-a]pyridin-2-yl)methyl)amino)pyridin-2-yl)-2-(3-chlorophenyl)cyclopropane-1-carboxamide]
10 to 100 nM	O=C(Nc1cc(NCc2cn3cc(C4CC4)ccc3n2)ccn1)[C@H]1C[C@@H]1c1ccc(Cl)s1 (racemic) [Example I-218, rac-(1S*,2S*)-2-(5-chlorothiophen-2-yl)-N-(4-(((6-cyclopropylimidazo[1,2-a]pyridin-2-yl)methyl)amino)pyridin-2-yl)cyclopropane-1-carboxamide]
< 1 nM	O=C(Nc1cc(NCc2cn3cc(C4CC4)ccc3n2)ccn1)[C@@H]1C[C@]12CCc1ccc(Cl)cc12 (racemic) [Example I-271, rac-(1S*,2S*)-6′-chloro-N-(4-(((6-cyclopropylimidazo[1,2-a]pyridin-2-yl)methyl)amino)pyridin-2-yl)-2′,3′-dihydrospiro[cyclopropane-1,1′-indene]-2-carboxamide]
1 to 10 nM	CN(C)C1CCN(c2cc(C3CC3)cn3cc(CNc4cc(NC(=O)[C@H]5C[C@@H]5c5cccc(Cl)c5)ncn4)nc23)C1 (single isomer, unassigned) [Example I-15]
> 6000 nM	COc1ccc(=O)n([C@H]2C[C@@H]2C(=O)Nc2cc(NCc3cn4cc(C5CC5)ccc4n3)ncn2)c1 (racemic) [Example I-181, rac-(1S*,2S*)-N-(6-(((6-cyclopropylimidazo[1,2-a]pyridin-2-yl)methyl)amino)pyrimidin-4-yl)-2-(5-methoxy-2-oxopyridin-1(2H)-yl)cyclopropane-1-carboxamide]
10 to 100 nM	O=C(Nc1cc(NCc2cn3cc(C4CC4)ccc3n2)ncn1)[C@H]1[C@H](CO)[C@@H]1c1cccc(Cl)c1 (racemic) [Example I-180, rac-(1R*,2S*,3R*)-2-(3-chlorophenyl)-N-(6-(((6-cyclopropylimidazo[1,2-a]pyridin-2-yl)methyl)amino)pyrimidin-4-yl)-3-(hydroxymethyl)cyclopropane-1-carboxamide]
> 6000 nM	O=C(Nc1cc(NCc2cn3cc(C4CC4)ccc3n2)ncn1)[C@H]1C[C@@H]1c1cccc(Cl)c1[N+](=O)[O-] (racemic) [Example I-190, rac-(1S*,2S*)-2-(3-chloro-2-nitrophenyl)-N-(6-(((6-cyclopropylimidazo[1,2-a]pyridin-2-yl)methyl)amino)pyrimidin-4-yl)cyclopropane-1-carboxamide]

The remaining lines, values behind:

SMILES	EC50
O=C(Nc1cc(NCc2cn3cc(C4CC4)cc(N4CCCC4=O)c3n2)ncn1)[C@H]1C[C@@H]1c1cccc(Cl)c1 (racemic) [Example 58, rac-(1S*,2S*)-2-(3-chlorophenyl)-N-(6-(((6-cyclopropyl-8-(2-oxopyrrolidin-1-yl)imidazo[1,2-α]pyridin-2-yl)methyl)amino)pyrimidin-4-yl)cyclopropane-1-carboxamide]	1 to 10 nM
Cc1ccnc([C@H]2C[C@@H]2C(=O)Nc2nncc(OC(C)c3cn4cc(C5CC5)cc(N5CC(=O)N(C)C5=O)c4n3)n2)n1 (stereo partly drawn) [Example 672, (1S,2S)—N-(5-(1-(6-cyclopropyl-8-(3-methyl-2,4-dioxoimidazolidin-1-yl)imidazo[1,2-a]pyridin-2-yl)ethoxy)-1,2,4-triazin-3-yl)-2-(4-methylpyrimidin-2-yl)cyclopropane-1-carboxamide]	< 1 nM
Cc1ccnc([C@@H]2C[C@H]2C(=O)Nc2cc(NCc3cn4cc(C5CC5)cc(S(C)(=O)=O)c4n3)ncn2)n1 (single isomer, unassigned) [Example 323]	10 to 100 nM
Cc1ccnc([C@H]2C[C@@H]2C(=O)Nc2cc(N[C@H](C)c3cn4cc(C5CC5)cc(N5CC(=O)N(C)C5=O)c4n3)nc(CCO)n2)n1 [Example 468, (1S,2S)—N-(6-(((R)-1-(6-cyclopropyl-8-(3-methyl-2,4-dioxoimidazolidin-1-yl)imidazo[1,2-a]pyridin-2-yl)ethyl)amino)-2-(2-hydroxyethyl)pyrimidin-4-yl)-2-(4-methylpyrimidin-2-yl)cyclopropane-1-carboxamide]	< 1 nM
CNc1nnc(NC(=O)[C@H]2C[C@@H]2c2nccc(C)n2)cc1OCc1cn2cc(C3CC3)cc(N3CC(=O)N(C)C3=O)c2n1 [Example 670, (1S,2S)—N-(5-((6-cyclopropyl-8-(3-methyl-2,4-dioxoimidazolidin-1-yl)imidazo[1,2-a]pyridin-2-yl)methoxy)-6-(methylamino)pyridazin-3-yl)-2-(4-methylpyrimidin-2-yl)cyclopropane-1-carboxamide]	< 1 nM
Cc1ccnc([C@H]2C[C@@H]2C(=O)Nc2cc(N[C@H](C)c3cn4cc(C5CC5)cc(N5CCN(C)C5=O)c4n3)ncn2)n1 [Example 536, (1S,2S)-N-(6-(((R)-1-(6-cyclopropyl-8-(3-methyl-2-oxoimidazolidin-1-yl)imidazo[1,2-a]pyridin-2-yl)ethyl)amino)pyrimidin-4-yl)-2-(4-methylpyrimidin-2-yl)cyclopropane-1-carboxamide]	< 1 nM
N#Cc1cc(C2CC2)cn2cc(CNc3ccnc(NC(=O)[C@@H]4C[C@H]4c4cccc(Cl)c4)c3)nc12 (racemic) [Example 119, rac-(1S*,2S*)-2-(3-chlorophenyl)-N-(4-(((8-cyano-6-cyclopropylimidazo[1,2-a]pyridin-2-yl)methyl)amino)pyridin-2-yl)cyclopropane-1-carboxamide]	1 to 10 nM
Cc1ccnc([C@H]2C[C@@H]2C(=O)Nc2ccc(F)c(NCc3cn4cc(C5CC5)cc(N5CC(=O)N(C)C5=O)c4n3)c2)n1 [Example 656, (1S,2S)—N-(3-(((6-cyclopropyl-8-(3-methyl-2,4-dioxoimidazolidin-1-yl)imidazo[1,2-a]pyridin-2-yl)methyl)amino)-4-fluorophenyl)-2-(4-methylpyrimidin-2-yl)cyclopropane-1-carboxamide]	< 1 nM
CCOC(=O)CCc1cc(C2CC2)cn2cc(CNc3cc(NC(=O)[C@H]4C[C@@H]4c4cccc(Cl)c4)ncn3)nc12 (racemic) [Example 61, rac-ethyl 3-(2-(((6-((1S*,2S*)-2-(3-chlorophenyl)cyclopropane-1-carboxamido)pyrimidin-4-yl)amino)methyl)-6-cyclopropylimidazo[1,2-α]pyridin-8-yl)propanoate]	1 to 10 nM
NC(=O)c1cc(C2CC2)cn2cc(CNc3cc(NC(=O)[C@H]4C[C@@H]4c4cccc(Cl)c4)ncn3)nc12 [Example 302, 2-(((6-((1S,2S)-2-(3-chlorophenyl)cyclopropane-1-carboxamido)pyrimidin-4-yl)amino)methyl)-6-cyclopropylimidazo[1,2-a]pyridine-8-carboxamide]	1 to 10 nM
Cc1ccnc([C@H]2C[C@@H]2C(=O)Nc2cc(N[C@H](C)c3cn4cc(C(C)(F)F)cc(N5CC(=O)N(C)C5=O)c4n3)ncn2)n1 [Example 531, (1S,2S)-N-(6-(((R)-1-(6-(1,1-difluoroethyl)-8-(3-methyl-2,4-dioxoimidazolidin-1-yl)imidazo[1,2-a]pyridin-2-yl)ethyl)amino)pyrimidin-4-yl)-2-(4-methylpyrimidin-2-yl)cyclopropane-1-carboxamide]	< 1 nM
O=C(Nc1cc(NCc2cn3cc(C4CC4)ccc3n2)ncn1)[C@H]1C[C@@H]1c1cccc(Cl)c1 (racemic) [Example 55, rac-(1S*,2S*)-2-(3-chlorophenyl)-N-(6-(((6-cyclopropylimidazo[1,2-a]pyridin-2-yl)methyl)amino)pyrimidin-4-yl)cyclopropane-1-carboxamide]	1 to 10 nM
O=C(Nc1ccnc(NCc2cn3cc(C4CC4)ccc3n2)n1)[C@H]1C[C@@H]1c1cccc(Cl)c1 (racemic) [Example 347, (rac-(1S*,2S*))-2-(3-chlorophenyl)-N-(2-(((6-cyclopropylimidazo[1,2-a]pyridin-2-yl)methyl)amino)pyrimidin-4-yl)cyclopropane-1-carboxamide]	10 to 100 nM
CCc1cc(N2CC(=O)N(C)C2=O)c2nc([C@@H](C)Nc3cc(NC(=O)[C@H]4C[C@@H]4c4nccc(C)n4)ncn3)cn2c1 [Example 419, (1S,2S)-N-(6-(((R)-1-(6-ethyl-8-(3-methyl-2,4-dioxoimidazolidin-1-yl)imidazo[1,2-a]pyridin-2-yl)ethyl)amino)pyrimidin-4-yl)-2-(4-methylpyrimidin-2-yl)cyclopropane-1-carboxamide]	< 1 nM
O=C(Nc1cc(OCc2cn3cc(C4CC4)ccc3n2)cnn1)[C@H]1C[C@@H]1c1cccc(Cl)c1 (racemic) [Example 103, rac-(1S*,2S*)-2-(3-chlorophenyl)-N-(5-((6-cyclopropylimidazo[1,2-a]pyridin-2-yl)methoxy)pyridazin-3-yl)cyclopropane-1-carboxamide]	10 to 100 nM
O=C(O)CCc1cc(C2CC2)cn2cc(CNc3cc(NC(=O)[C@H]4C[C@@H]4c4cccc(Cl)c4)ncn3)nc12 (racemic) [Example 72, rac-3-(2-(((6-((1S*,2S*)-2-(3-chlorophenyl)cyclopropane-1-carboxamido)pyrimidin-4-yl)amino)methyl)-6-cyclopropylimidazo[1,2-a]pyridin-8-yl)propanoic acid]	1 to 10 nM
